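Results reflect a 48-hour exposure of cells in 96-well plates to compound at five concentrations. GI50 marks 50% less growth.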 Calls of active or inactive are those of the source. Cut-off read from the data, not from the text of the source: active = GI50 up to about 1.1 µM and inactive = higher.
Experiments:
Assay in all cases: NCI-60 cell line screen, 48 h
ACHN = test system: ACHN
BT-549 = test system: BT-549
CCRF-CEM = test system: CCRF-CEM
COLO 205 = test system: COLO 205
HCT-15 = test system: HCT-15
KM12 = test system: KM12
MCF7 = test system: MCF7
NCI-H23 = test system: NCI-H23
NCI/ADR-RES = test system: NCI/ADR-RES
OVCAR-8 = test system: OVCAR-8
RPMI-8226 = test system: RPMI-8226
SK-MEL-2 = test system: SK-MEL-2
SN12C = test system: SN12C
SNB-19 = test system: SNB-19
SNB-75 = test system: SNB-75
SW-620 = test system: SW-620
TK-10 = test system: TK-10
RXF 393 = test system: RXF 393
UO-31 = test system: UO-31

Structure (SMILES)	GI50 (ACHN)	GI50 (BT-549)	GI50 (CCRF-CEM)	GI50 (COLO 205)	GI50 (HCT-15) [µM]	GI50 (KM12)	GI50 (MCF7)	GI50 (NCI-H23)	GI50 (NCI/ADR-RES)	GI50 (OVCAR-8)	GI50 (RPMI-8226)	GI50 (SK-MEL-2)	GI50 (SN12C)	GI50 (SNB-19)	GI50 (SNB-75)	GI50 (SW-620)	GI50 (TK-10)	GI50 (RXF 393)	GI50 (UO-31)
COc1ccc(C2=C(N)c3ccccc3C2=O)cc1	63.2 µM (inactive)	48.6 µM (inactive)	> 100 µM (inactive)	> 100 µM (inactive)	> 100	> 100 µM (inactive)	> 100 µM (inactive)	39.5 µM (inactive)	42.4 µM (inactive)	37.8 µM (inactive)	> 100 µM (inactive)	> 100 µM (inactive)	> 100 µM (inactive)	25.7 µM (inactive)	27.7 µM (inactive)	> 100 µM (inactive)	45.1 µM (inactive)		
Cc1nn(C(=O)c2ccccc2O)c2c1C(c1ccc(O)cc1)SC(=N)N2 (stereo unspecified)	0.951 µM (active)	> 10 µM (inactive)	1.7 µM (inactive)	> 6.93 µM (inactive)	1.75	> 2.15 µM (inactive)	> 2.36 µM (inactive)	1.83 µM (inactive)	2.03 µM (inactive)	> 2.47 µM (inactive)		> 2.65 µM (inactive)	1.79 µM (inactive)	8.41 µM (inactive)	0.74 µM (active)	> 6.64 µM (inactive)	> 2.52 µM (inactive)	1.23 µM (inactive)	7.55 µM (inactive)
O=C(C1OC1c1ccc(Cl)cc1)C12CC3CC(CC(C3)C1)C2 (stereo unspecified)	35.4 µM (inactive)	19.9 µM (inactive)	19 µM (inactive)	19.5 µM (inactive)	20.1	18.8 µM (inactive)	33.7 µM (inactive)	14.4 µM (inactive)	22.9 µM (inactive)	16.5 µM (inactive)		25.5 µM (inactive)	14.7 µM (inactive)	31.5 µM (inactive)	32.8 µM (inactive)	20.3 µM (inactive)	26.7 µM (inactive)	21.8 µM (inactive)	20.4 µM (inactive)
OCCOCCN1CCN(CCCN2c3ccccc3Sc3ccc(C(F)(F)F)cc32)CC1	17.7 µM (inactive)	19.8 µM (inactive)	0.337 µM (active)	1.75 µM (inactive)	21.6	6.7 µM (inactive)	13.1 µM (inactive)	16.4 µM (inactive)		15.2 µM (inactive)	3.17 µM (inactive)	19.4 µM (inactive)	13.6 µM (inactive)	14.4 µM (inactive)	2.39 µM (inactive)	15.5 µM (inactive)	11.7 µM (inactive)	3.18 µM (inactive)	5.74 µM (inactive)
CN(C)CCNC(=O)c1cccc2c(NC(CS)C(=O)O)c3ccccc3[n+](C)c12 (stereo unspecified)	35.5 µM (inactive)	35.6 µM (inactive)		43.9 µM (inactive)	> 100	> 100 µM (inactive)	95.5 µM (inactive)	89.5 µM (inactive)	33.8 µM (inactive)	56.8 µM (inactive)	> 100 µM (inactive)	> 100 µM (inactive)	49.4 µM (inactive)	84.7 µM (inactive)	41.6 µM (inactive)	39.7 µM (inactive)	> 100 µM (inactive)		71.8 µM (inactive)
CC1=C(C(=O)NNC(=O)CC#N)CC(C(=O)NNC(=O)CC#N)=C(C)N1	> 100 µM (inactive)	> 100 µM (inactive)		> 100 µM (inactive)	> 100	> 100 µM (inactive)	> 100 µM (inactive)	> 100 µM (inactive)	> 100 µM (inactive)	> 100 µM (inactive)		> 100 µM (inactive)	> 100 µM (inactive)	> 100 µM (inactive)	> 100 µM (inactive)	> 100 µM (inactive)	> 100 µM (inactive)	> 100 µM (inactive)	> 100 µM (inactive)
O=c1c(-c2ccccc2)nnc2n(Cc3ccccc3)c3ccccc3n12	> 100 µM (inactive)	> 100 µM (inactive)	> 100 µM (inactive)	> 100 µM (inactive)	> 100	> 100 µM (inactive)	> 100 µM (inactive)	> 100 µM (inactive)	> 100 µM (inactive)	> 100 µM (inactive)		> 100 µM (inactive)	> 100 µM (inactive)	> 100 µM (inactive)	> 100 µM (inactive)	> 100 µM (inactive)	> 100 µM (inactive)	95.1 µM (inactive)	> 100 µM (inactive)
COc1ccc(N2C(=O)C3c4[nH]c5cccc(C)c5c4C4CCC(C(C)(C)C)CC4C3C2=O)cc1 (stereo unspecified)	> 10 µM (inactive)			> 10 µM (inactive)	> 10	> 10 µM (inactive)	> 10 µM (inactive)	> 10 µM (inactive)	> 10 µM (inactive)	> 10 µM (inactive)	> 10 µM (inactive)	> 10 µM (inactive)	> 10 µM (inactive)	> 10 µM (inactive)	5.15 µM (inactive)	> 10 µM (inactive)	> 10 µM (inactive)	> 10 µM (inactive)	> 10 µM (inactive)
O=C(O)c1c[nH]c2c(Sc3ccccc3)nccc2c1=O	> 100 µM (inactive)	33 µM (inactive)	47 µM (inactive)	> 100 µM (inactive)	> 100	39.9 µM (inactive)	> 100 µM (inactive)	> 100 µM (inactive)	> 100 µM (inactive)	> 100 µM (inactive)		> 100 µM (inactive)	> 100 µM (inactive)	> 100 µM (inactive)	> 100 µM (inactive)	> 100 µM (inactive)	> 100 µM (inactive)		> 100 µM (inactive)
N#Cc1c(N)oc(-c2cccc([N+](=O)[O-])c2)c1C#N	19.1 µM (inactive)		27 µM (inactive)	20.9 µM (inactive)	16.1	> 10 µM (inactive)	53.3 µM (inactive)	21.4 µM (inactive)	30.5 µM (inactive)	21.1 µM (inactive)	22 µM (inactive)	44.5 µM (inactive)	38.6 µM (inactive)	31.6 µM (inactive)	21.9 µM (inactive)	24.1 µM (inactive)	22.1 µM (inactive)	24.8 µM (inactive)	16.7 µM (inactive)
C=C(Br)CNC(=O)CCC(=O)NCC(=C)Br	> 100 µM (inactive)		> 100 µM (inactive)	> 100 µM (inactive)	> 100	> 100 µM (inactive)	> 100 µM (inactive)	> 100 µM (inactive)	> 100 µM (inactive)	> 100 µM (inactive)	> 100 µM (inactive)	> 100 µM (inactive)	> 100 µM (inactive)	> 100 µM (inactive)	> 100 µM (inactive)	> 100 µM (inactive)	> 100 µM (inactive)	> 100 µM (inactive)	> 100 µM (inactive)
CON(C(=O)OC(C)(C)C)c1ccccc1	> 100 µM (inactive)	43.6 µM (inactive)	> 100 µM (inactive)	> 100 µM (inactive)	> 100	> 100 µM (inactive)		> 100 µM (inactive)	> 100 µM (inactive)	> 100 µM (inactive)	> 100 µM (inactive)	> 100 µM (inactive)		> 100 µM (inactive)	> 100 µM (inactive)	> 100 µM (inactive)	> 100 µM (inactive)	> 100 µM (inactive)	> 100 µM (inactive)
CCn1nc(C)c2c1C(=O)NC(C)C(=O)N2 (stereo unspecified)	> 100 µM (inactive)	> 100 µM (inactive)		> 100 µM (inactive)	15.1	> 10 µM (inactive)		> 100 µM (inactive)		> 100 µM (inactive)			36.6 µM (inactive)	> 100 µM (inactive)	> 100 µM (inactive)	> 100 µM (inactive)	> 100 µM (inactive)	> 100 µM (inactive)	> 100 µM (inactive)
C=C(C)C12OC1[C@@]1(C)C(=CC2=O)CCC(O)[C@@H]1C (stereo partly specified)	0.417 µM (active)	4.19 µM (inactive)	0.726 µM (active)	1.61 µM (inactive)	1.92	2.44 µM (inactive)	3.53 µM (inactive)	2.26 µM (inactive)		1.45 µM (inactive)	2.43 µM (inactive)	2.34 µM (inactive)	1.36 µM (inactive)	1.69 µM (inactive)	3.42 µM (inactive)	2.39 µM (inactive)	3.73 µM (inactive)		1.49 µM (inactive)
Cc1nc2ccc(Br)cc2c(=O)n1-c1ccc(N)cc1	> 100 µM (inactive)	99.5 µM (inactive)	> 100 µM (inactive)	> 100 µM (inactive)	> 100	> 100 µM (inactive)	> 100 µM (inactive)		> 100 µM (inactive)	> 100 µM (inactive)		> 100 µM (inactive)	> 100 µM (inactive)	> 100 µM (inactive)	17.2 µM (inactive)	> 100 µM (inactive)	> 100 µM (inactive)	28.1 µM (inactive)	84.5 µM (inactive)
O=C1OC[C@@H]2Cc3cc4c(cc3[C@H](c3ccc5c(c3)OCO5)[C@@H]12)OCO4	> 25 µM (inactive)	> 25 µM (inactive)	> 25 µM (inactive)	> 25 µM (inactive)	11	> 25 µM (inactive)	24.2 µM (inactive)	> 25 µM (inactive)	9.33 µM (inactive)	> 25 µM (inactive)	> 25 µM (inactive)	> 25 µM (inactive)	21.9 µM (inactive)	> 25 µM (inactive)			> 25 µM (inactive)		15.6 µM (inactive)
COC(=O)Cc1cc2c(cc1C(=O)c1ccc(N)cc1)OCO2			1.48 µM (inactive)	1.21 µM (inactive)	1.1	0.488 µM (active)	0.902 µM (active)	5.68 µM (inactive)	0.667 µM (active)	3.56 µM (inactive)	1.5 µM (inactive)	0.964 µM (active)	5.96 µM (inactive)	8.83 µM (inactive)	1.21 µM (inactive)	1.19 µM (inactive)	> 19.7 µM (inactive)	4.34 µM (inactive)	13.6 µM (inactive)

— ChEMBL document CHEMBL1201862, “PubChem BioAssay data set” (2004)
